One molecule from patent publication US20230000949A1, “SOLID COMPOSITIONS COMPRISING A PCSK9 INHIBITOR AND A SALT OF N-(8-(2-HYDROXYBENZOYL)AMINO)CAPRYLIC ACID” (Novo Nordisk A/S, priority 2019, published 2023) can be followed below.

For the series the following is noted: pH 6.

In the case of `NC(=O)c1cccnc1` [Nicotinamide], the “Effect on SNAC solubility” value is “concentration dependent effect”.
